Test results: patent US10954262B2, “Tunicamycin analogues” (Oxford University Innovation Limited, priority 2017, dated 2021)
In brackets after ≈: the same amount, converted by molar mass. Where a name gives a salt, the structure may show the parent alone. Read-outs that look alike come from different tables or passages of the source.

Experiments:
[1] = tested on: Bacillus cereus (ATCC11778); experiment: microbe, parasite or virus in culture; assay type: cell-based; conditions: for MIC: MH broth, 35° C., 20-24 hours; for IC50: OD600 dose-response curve; for MBC: additional 20 hours on MH agar
[2] = tested on: Pseudomonas aeruginosa (ATCC27853); experiment: Kirby-Bauer disc diffusion susceptibility test; assay type: cell-based; conditions: 6 mm disc, 5 μg
Protocol: (§1) Bioactivity was assessed using the Kirby-Bauer disc diffusion susceptibility test. Oxoid Blank Discs were impregnated with the desired test substance. A 0.5 McFarland standard inoculum was prepared by adding 3-5 single colonies to 10 mL MH broth in a 15 mL falcon tube and standardised to 0.5 McFarland standard. The inoculum was used within 10 minutes. A sterile cotton swab was dipped in the inoculum, gently pressed against the side of the tube to remove excess liquid, and generously streaked on MH agar plate to fully cover the plate. The impregnated disc was carefully placed on the agar. The plate was incubated at 35° C. for 20 hrs overnight. A digital calliper was used to measure the zone diameter. The recorded zone diameter is an average of three zone diameters measured of one zone.
(§2) Each 6 mm disc was impregnated with 5 μg of the relevant compound (TM, A, B, C, D, or any of E1 to E7), and the diffusion zone recorded after 20 hours.
Underlying scaffolds A, B, C and D and lipid-varied analogues E1 to E7 were assayed for potency against Pseudomonas aeruginosa (ATCC27853), according to the methods of Example 2. Results of the Kirby-Bauer disc diffusion susceptibility test conducted using Pseudomonas aeruginosa (ATCC27853) as a test organism are shown in FIG. 2 and in Table 3. MIC, MBC and IC50 values were also obtained as in Example 2.

HEK293 kidney cells = experiment: Cell proliferation assay / cell morphology (cytotoxicity); assay type: cell-based, human; conditions: for Minimum lethal dose: HEK293; for viable cells: human
Protocol: (§3) Underlying scaffolds A, B, C and D and lipid-varied analogues E1 to E7 were assayed for cytotoxicity towards human liver cells (Hep2G) and human kidney cells (HEK293).
(§4) Mammalian cells were cultured in DMEM medium supplemented with 10% heat inactivated fetal bovine serum (FBS, v/v). The cultures were maintained in a humidified incubator at 37° C. in 5% CO2/95% air. FBS was reduced to 2% for the cell proliferation assay.
(§5) In sterile 96-well plate, each well was seeded with 1×10^5 cells. The cells were then grown confluent overnight in 100 μL DMEM with 10% FBS. The medium was replenished with DMEM with 2% FBS and added vehicle control or test substance the next day. For test substance in methanol, stock was added to 25 μL of DMEM with 2% FBS or PBS and placed in a laminar flow hood to let the methanol evaporate (about 1-3 hrs). Once the methanol has evaporated, DMEM with 2% FBS was added to final volume of 100 μL of desired test concentration. […] Cells were grown for additional 24 hrs. The cell viability was determined by using a Promega CellTiter 96 AQueous One Solution Cell Proliferation Assay System following the manufacturer's protocol.

HepG2 liver cells = experiment: as above; assay type: cell-based, human; conditions: for Minimum lethal dose: HepG2; for viable cells: human
Protocol: as §3, §4, §5

[3] = tested on: Bacillus cereus (ATCC11778); experiment: Kirby-Bauer disc diffusion susceptibility test; assay type: cell-based; conditions: for zone of inhibition at 5 µg/disc: ATCC11778, 6 mm disc impregnated with 5 μg, 20 hours, 35° C., read-out: Diffusion distance (zone diameter); for Antibacterial activity in disc diffusion test: 5 μg per disc
Protocol: as §1, §2
(§6) Results are shown for E2 to E7 and TM. Values quoted are zone diameters, with larger numbers indicating higher antibacterial activity.

[4] = tested on: Bacillus subtilis (EC1524); experiment: Kirby-Bauer disc diffusion susceptibility test; assay type: cell-based; conditions: for zone of inhibition at 5 µg/disc: 6 mm disc impregnated with 5 μg, 20 hours, 35° C., read-out: Diffusion distance (zone diameter); for Antibacterial activity in disc diffusion test: 5 μg per disc
Protocol: as §1, §2, §6

[5] = tested on: Pseudomonas aeruginosa (ATCC27853); experiment: microbe, parasite or virus in culture; assay type: cell-based
[6] = tested on: Bacillus subtilis (EC1524); experiment: microbe, parasite or virus in culture; assay type: cell-based; conditions: for MIC: MH broth, 35° C., 20-24 hours; for IC50: OD600 dose-response curve; for MBC: additional 20 hours on MH agar
[7] = tested on: Mycobacterium tuberculosis H37RV; experiment: MIC in GAST/Fe and 7H9/ADC/Tw growth medium at 1 and 2 weeks; assay type: cell-based; conditions: for MIC: Mycobacterium tuberculosis, H37RV

| Structure (SMILES) | MIC [1] | IC50 [1] | MBC [1] | Diffusion distance [2] | Minimum lethal dose (HEK293 kidney cells) | viable cells (HEK293 kidney cells) | Minimum lethal dose (HepG2 liver cells) | viable cells (HepG2 liver cells) | zone of inhibition at 5 µg/disc [3] | zone of inhibition at 5 µg/disc [4] | IC50 [5] | MBC [5] | MIC [5] | MIC [6] | IC50 [6] | MBC [6] | Antibacterial activity in disc diffusion test [3] | Antibacterial activity in disc diffusion test [4] | further results |
| --- | --- | --- | --- | --- | --- | --- | --- | --- | --- | --- | --- | --- | --- | --- | --- | --- | --- | --- | --- |
| CCCCCCCCCC(=O)NC1C(OC2OC(C[C@@H](O)[C@H]3O[C@@H](n4ccc(=O)[nH]c4=O)[C@H](O)[C@@H]3O)C(O)C(O)[C@H]2NC(=O)CCCCCCCCC)OC(CO)[C@@H](O)C1O (stereo partly shown) [Compound E5, Di-N-decanoyl-tunicamycin] | 0.39 µg/mL (≈ 0.446 µM) | 0.0461 µg/mL (≈ 0.0527 µM) | 12.5 µg/mL (≈ 14.3 µM) | 12 mm | >400 µg/mL | > 75% | >400 µg/mL | > 75% | 9 mm | 10 mm | 53.5 µg/mL (≈ 61.1 µM) | 400 µg/mL (≈ 457 µM) | 100 µg/mL (≈ 114 µM) | 0.39 µg/mL (≈ 0.446 µM) | 0.114 µg/mL (≈ 0.13 µM) | > 0.39 µg/mL |  |  |  |
| CCCCCCCCCCC(=O)NC1C(OC2OC(C[C@@H](O)[C@H]3O[C@@H](n4ccc(=O)[nH]c4=O)[C@H](O)[C@@H]3O)C(O)C(O)[C@H]2NC(=O)CCCCCCCCCC)OC(CO)[C@@H](O)C1O (stereo partly shown) [Compound E6, Di-N-undecanoyl-tunicamycin] | 0.78 µg/mL (≈ 0.864 µM) | 0.0878 µg/mL (≈ 0.0972 µM) | 25 µg/mL (≈ 27.7 µM) | 12 mm | >400 µg/mL | > 75% | >400 µg/mL | > 75% | 7 mm | 6 mm | 63.2 µg/mL (≈ 69.9 µM) | 400 µg/mL (≈ 443 µM) | 100 µg/mL (≈ 111 µM) | 1.56 µg/mL (≈ 1.73 µM) | 0.852 µg/mL (≈ 0.943 µM) | > 6.25 µg/mL |  |  | 1-week MIC [7]: 2.8 µg/mL; 2-week MIC [7]: 2.8 µg/mL; MIC ([7]; 168 h, read-out: 1-week MIC): 5.6 µg/mL (≈ 6.2 µM); MIC ([7]; 336 h, read-out: 2-week MIC): 5.6 µg/mL (≈ 6.2 µM) |
| CCCCCCCCCCCC(=O)NC1C(OC2OC(C[C@@H](O)[C@H]3O[C@@H](n4ccc(=O)[nH]c4=O)[C@H](O)[C@@H]3O)C(O)C(O)[C@H]2NC(=O)CCCCCCCCCCC)OC(CO)[C@@H](O)C1O (stereo partly shown) [Compound E7, Di-N-dodecanoyl-tunicamycin] | 50 µg/mL (≈ 53.7 µM) | 1.4 µg/mL (≈ 1.51 µM) | > 200 µg/mL | 8 mm | >400 µg/mL | > 75% | >400 µg/mL | > 75% |  |  | 81.9 µg/mL (≈ 88 µM) | > 400 µg/mL | 200 µg/mL (≈ 215 µM) | 100 µg/mL (≈ 107 µM) | 58.9 µg/mL (≈ 63.2 µM) | > 200 µg/mL |  |  |  |
| CC(C)=CCC[C@H](C)CC(=O)NC1C(OC2OC(C[C@@H](O)[C@H]3O[C@@H](n4ccc(=O)[nH]c4=O)[C@H](O)[C@@H]3O)C(O)C(O)[C@H]2NC(=O)C[C@@H](C)CCC=C(C)C)OC(CO)[C@@H](O)C1O (stereo partly shown) [Compound E1, Di-N-citronoyl-tunicamycin] | 100 µg/mL (≈ 115 µM) | 6.29 µg/mL (≈ 7.22 µM) | > 200 µg/mL |  | >400 µg/mL | > 75% | >400 µg/mL | > 75% |  |  | 70.3 µg/mL (≈ 80.7 µM) | > 400 µg/mL | 200 µg/mL (≈ 230 µM) | 6.25 µg/mL (≈ 7.18 µM) | 0.415 µg/mL (≈ 0.476 µM) | > 100 µg/mL |  |  |  |
| NC1C(O)[C@H](O)C(CO)O[C@@H]1OC1O[C@H](C[C@@H](O)[C@@H]2O[C@@H](n3ccc(=O)[nH]c3=O)[C@H](O)[C@@H]2O)C(O)C(O)[C@H]1N (stereo partly drawn) [D, α-D-glucosamine-(1″-11′)-tunicamyl Uracil Dihydrochloride] |  |  |  |  |  |  |  |  |  |  |  |  |  |  |  |  | completely inactive | completely inactive |  |
| CC(=O)NC1C(O)[C@H](O)C(CO)O[C@@H]1OC1O[C@H](C[C@@H](O)[C@@H]2O[C@@H](n3ccc(=O)[nH]c3=O)[C@H](O)[C@@H]2O)C(O)C(O)[C@H]1NC(C)=O (stereo partly drawn) [C, α-D-N-acetylglucosamine-(1″-11′)-N-acetyl Tunicamyl Uracil] |  |  |  |  |  |  |  |  |  |  |  |  |  |  |  |  | completely inactive | completely inactive |  |
| CC(=O)N[C@H]1C(O)O[C@H](C[C@@H](O)[C@@H]2O[C@@H](n3ccc(=O)[nH]c3=O)[C@H](O)[C@@H]2O)C(O)C1O (stereo partly shown) [A, N-acetyl-tunicamyl-uracil] |  |  |  |  |  |  |  |  |  |  |  |  |  |  |  |  | completely inactive | completely inactive |  |
| CCCCCCCCC(=O)NC1C(OC2OC(C[C@@H](O)[C@H]3O[C@@H](n4ccc(=O)[nH]c4=O)[C@H](O)[C@@H]3O)C(O)C(O)[C@H]2NC(=O)CCCCCCCC)OC(CO)[C@@H](O)C1O (stereo partly shown) [Compound E4, Di-N-nonanoyl-tunicamycin] | 0.78 µg/mL (≈ 0.921 µM) | 0.0723 µg/mL (≈ 0.0854 µM) | 25 µg/mL (≈ 29.5 µM) | 13 mm | >400 µg/mL | > 75% | >400 µg/mL | > 75% | 13 mm | 16 mm | 55 µg/mL (≈ 64.9 µM) | 400 µg/mL (≈ 472 µM) | 100 µg/mL (≈ 118 µM) | 0.024 µg/mL (≈ 0.0283 µM) | 0.0146 µg/mL (≈ 0.0172 µM) | > 0.06 µg/mL |  |  | MIC lower than naturally occurring tunicamycin TM ([7]; in some cases): approximately 5 fold |
| CCCCCCC(=O)NC1C(OC2OC(C[C@@H](O)[C@H]3O[C@@H](n4ccc(=O)[nH]c4=O)[C@H](O)[C@@H]3O)C(O)C(O)[C@H]2NC(=O)CCCCCC)OC(CO)[C@@H](O)C1O (stereo partly shown) [Compound E2, Di-N-heptanoyl tunicamycin] | 100 µg/mL (≈ 126 µM) | 13.3 µg/mL (≈ 16.9 µM) | > 200 µg/mL | 7 mm | >400 µg/mL | > 75% | >400 µg/mL | > 75% |  | 10 mm | 62.4 µg/mL (≈ 79 µM) | > 400 µg/mL | 100 µg/mL (≈ 126 µM) | 6.25 µg/mL (≈ 7.9 µM) | 3.39 µg/mL (≈ 4.29 µM) | > 50 µg/mL |  |  |  |
| CC(C)(C)OC(=O)NC1C(O)[C@H](O)C(CO)O[C@@H]1OC1O[C@H](C[C@@H](O)[C@@H]2O[C@@H](n3ccc(=O)[nH]c3=O)[C@H](O)[C@@H]2O)C(O)C(O)[C@H]1NC(=O)OC(C)(C)C (stereo partly drawn) [B, 10′,2″-Di-N-Boc-α-D-glucosamine-(1″-11′)-tunicamyl Uracil] |  |  |  |  |  |  |  |  |  |  |  |  |  |  |  |  | completely inactive | completely inactive |  |
